Where “and” joins values, the source holds several entries; their conditions need not be identical. Equal entries are not always repeated. Where a SMILES comes first, the peptide text is derived from it. The star is where a group is joined. Biotin = O=C1N[C@H]2[C@H](CS[C@H]2CCCCC(=O)*)N1; Cbz = O=C(OCc1ccccc1)*; CHN2 = [N-]=[N+]=C*; Ahx = NCCCCCC(=O)O; CH2Cl = ClC*
Legend:
SrtAΔN [1] = target: T1, SrtAΔN (Staphylococcus aureus, UniProt Q2FV99); experiment: biochemical; format: biochemical, S. aureus; details: for k1 (first-order rate constant ki for covalent modification of SrtAΔN) / ki/Ki (specificity constant): 37° C., means ± S.E.M., four determinations; for k1 (first-order rate constant ki for covalent modification of SrtAΔN): pH 7.5, inhibitor 25-200 μM; for ki/Ki (specificity constant): pH 7.5
T1 construct: The region of the SrtA gene lacking the N-terminal membrane domain was then PCR-amplified; made in house; host or cells: E. coli HMS174(DE3)pLysS
Experimental: Using methods described previously, SrtAΔN activity was measured with the internally quenched substrate 4([4-(dimethylamino)phenyl]azo)-benzoyl(Dabcyl)-[…][(2-aminoethyl)-amino]napthalenel-sulphonyl (Edans) (prepared by standard Fmoc solid-phase synthesis) on a CytoFluor 4000® multi-well fluorimeter (PerSeptive Biosystems, Foster City, Calif., U.S.A.). All SrtAAN assays were performed at 37° C. (in triplicate) in 50 mM Tris/HCI (pH 7.5) containing 150 mM NaCl, 5 mM CaCl2, 5 mM NH,-Gly3 and 5 mM dithiothreitol (SrtA buffer). Wells contained approx. 10 pM of purified SrtAoN and 50 pM of substrate, in a final volume of 200, ul. The Km and kcat values for the SrtAΔN-catalysed cleavage of the internally quenched sub-strate were calculated by fitting the data points directly into the Michaelis-Menten equation for substrate hydrolysis, using GraFit® software (Erithacus Software, Horley, Surrey, U.K.).
Data from the curves were fitted, using non-linear regression analysis, to the integrated rate equation [P]=PJ1-e “-Pp”). This equation represents a first-order rate process for the formation of product P as a function of time, where kapp is the apparent rate constant and P. represents the concentration of product at a time approaching infinity. Using five different concentrations for each inhibitor (25, 50, 100, 150 and 200/μM), the values kapp and P∞were determined and utilized to evaluate the apparent second-order rate constant A for the inactivation of SrtAΔN in the presence of the substrate. The individual kinetic constants ki and Ki were then evaluated for both inhibitors from a plot of 1/A versus inhibitor concentration [I] [28], and the specificity constant k;/K; was calculated.
Data from the progress curves for SrtΔN-catalysed hydrolysis of the internally quenched substrate Dabcyl-[…]Edans in the presence of five different concentrations of inhibitors I and II (25, 50, 100, 150 and 200, W) were fitted by non-linear regression analysis to the integrated rate equation [P]=P∞(1-e^−kaPPt). The P∞. and kapp values were determined and used to evaluate the apparent second-order rate constant A for inactivation of SrtΔN in the presence of substrate. The individual kinetic constants k and K were then evaluated from a plot of 1/A versus inhibitor concentration [I], and the specificity constant for each inhibitor (kiKi) calculated. Values represent the means ±S.E.M. for four determinations.

SrtAΔN [2] = target: T1, SrtAΔN; experiment: Affinity labelling of recombinant SrtAΔN, Western blot with streptavidin-alkaline phosphatase; format: binding, S. aureus
Experimental: (§1) To detect the affinity-labelled recombinant and wild-type SrtA, samples were analysed by Western-blot analysis [19,24-26]. Briefly, samples were treated with denaturing treatment buffer and the proteins separated by SDS/PAGE on 4-20% (w/v) linear gradient gels, followed by semi-dry transfer to a nitrocellulose membrane (Schleicher and Schiill, Dassel, Germany). After transfer, non-specific binding sites were quenched with a 3% (w/v) solution of BSA in 20 mM Tris/HCI (pH 7.4), containing 150 mM NaCl. To detect the biotin group, the membrane was incubated with a streptavidin-alkaline phosphatase conjugate (1:500). […] Bound antibody was detected with a goat anti-rabbit IgG alkaline phosphatase conjugate (1:20000).
In lane 3, the bound fraction eluted from the column with 10 mM imidazole (purified SrtAΔN) was also analysed.

[3] = target: recombinant sortase SrtAΔN (His6-tagged) (Staphylococcus aureus (Oxford strain)) (UniProt Q2FV99)
cathepsin B [4] = target: T2, cathepsin B (Homo sapiens, UniProt P07858); details: reference [30]; cited from earlier work
cathepsin B [5] = target: T2, cathepsin B; details: cathepsin B/Cbz-Phe-Phe-CH2Cl versus SrtAΔN/II
wild-type SrtA = target: T3, wild-type SrtA (Staphylococcus aureus, UniProt Q2FV99); experiment: Affinity labelling of wild-type SrtA in crude S. aureus cell lysates, Western blot; format: binding; details: lysate probed with III; additional 24 kDa band, confirmed with antiserum
T3 construct: endogenous in cells; host or cells: S. aureus Oxford strain (ATCC 9144)
Experimental: For the disclosure of wild-type SrtA in S. aureus, a 50 ml overnight culture of the organism in LB broth was prepared. The bacterial cells were centrifuged at 3000 g for 15 min and the resulting pellet was washed in 5 ml of SrtA buffer. The washed bacteria were then resuspended in 1 ml of SrtA buffer containing 0.1 g of glass beads. The suspension was vortex-mixed continuously for 5 min followed by centrifugation at 1500 g for 15 min to remove the beads and unbroken cells. To 100 pl of purified SrtAΔN and the crude bacterial preparations, the inhibitor biotin-Ahx-Leu-Pro-Ala-Thr-CHN2 (III) was added (final concentration 50 pM) before incubation at 37° C. for 30 min.
To detect the affinity-labelled recombinant and wild-type SrtA, samples were analysed by Western-blot analysis. […] Bound antibody was detected with a goat anti-rabbit IgG alkaline phosphatase conjugate (1:20000).
Western-blotting experiments were performed with biotinAhx-Leu-Pro-Ala-Thr-CHN2 (III) to detect the presence of wildtype SrtA in crude cell lysates from S. aureus (Oxford strain; see FIG. 8B). […] In the duplicate lanes 3 and 4, which contained cell lysate “probed” with biotin-Ahx-Leu-Pro-Ala-Thr-CHN2 (III), the BCCP protein was detected along with an additional protein of apparent molecular mass 24 kDa. […]

SrtB = SrtB (Staphylococcus aureus, UniProt Q2FZE3); format: binding; details: crude S. aureus extracts, iron not added to culture media
Experimental: as §1

CC(C)C[C@H](NC(=O)OCc1ccccc1)C(=O)N1CCC[C@H]1C(=O)N[C@@H](C)C(=O)N[C@H](C(=O)C=[N+]=[N-])[C@@H](C)O [Inhibitor I, Cbz-Leu-Pro-Ala-Thr-CHN2] (Cbz-LPAT-CHN2)
Ki (SrtAΔN [1]): 220 nM | k1 (first-order rate constant ki for covalent modification of SrtAΔN) (SrtAΔN [1]): 5.8×10^−3 min^−1 and 5.8 ± 0.6 × 10^−3 min^−1 | ki/Ki (specificity constant) (SrtAΔN [1]): 2.2×10^4 M^−1 − min^−1 and 2.2 ± 0.2 × 10^4 M^−1 − min^−1

CC(C)C[C@H](NC(=O)OCc1ccccc1)C(=O)N1CCC[C@H]1C(=O)N[C@@H](C)C(=O)N[C@H](C(=O)CCl)[C@@H](C)O [Inhibitor II, Cbz-Leu-Pro-Ala-Thr-CH2Cl] (Cbz-LPAT-CH2Cl)
Ki (SrtAΔN [1]): 210 nM | k1 (first-order rate constant ki for covalent modification of SrtAΔN) (SrtAΔN [1]): 1.1×10^−2 min^−1 and 1.1 ± 0.1 × 10^−2 min^−1 | ki/Ki (specificity constant) (SrtAΔN [1]): 5.3×10^4 M^−1 − min^−1 and 5.3 ± 0.6 × 10^4 M^−1 − min^−1 | covalently modifies SrtAΔN more rapidly than peptidyl-diazomethane I (by ki) (SrtAΔN [1]; II versus I): approx. 2 fold | inactivates SrtAΔN more rapidly than analogous diazomethane sequence I (by specificity constants) (SrtAΔN [1]; II versus I): approx. 2 fold

O=C(O)c1cc[c]([Hg][OH])cc1 [pHMB, reference compound]
effect of pre-treatment on SrtAΔN labelling by III (SrtAΔN [2]; purified SrtAΔN pre-treated with thiol-directed inhibitor before probing with III): complete diminution of SrtAΔN labelling

Cbz-Leu-Pro-Ala-Thr-CH2Cl (II), peptidyl-chloromethane inhibitor (peptide)
ki (first-order rate constant of inactivation) [3]: 0.011 min⁻¹ | ki/Ki (specificity constant) [3]: 883 M⁻¹ s⁻¹

Cbz-Leu-Pro-Ala-Thr-CHN2 (I), peptidyl-diazomethane inhibitor (peptide)
ki (first-order rate constant of inactivation) [3]: 0.0058 min⁻¹ | ki/Ki (specificity constant) [3]: 367 M⁻¹ s⁻¹

Cbz-Phe-Phe-CH,Cl
ki for alkylation of the active-site cysteine residue of cathepsin B (cathepsin B [4]): 12.5 min⁻¹ | ki greater than irreversible modification of SrtAΔN by peptidyl-chloromethane II (cathepsin B [5]): approx. 1000 fold

{Biotin-Ahx}-LPAT-CHN2 [Inhibitor III]
detection of wild-type SrtA in crude S. aureus lysate (wild-type SrtA): affinity-labelled SrtA | nature of binding of biotinylated inhibitor to SrtAΔN (SrtAΔN [2]; 50 μM, 37° C., 30 min, approx. 30 kDa band labelled in crude E. coli lysate and purified fraction): active-site-directed | selectivity of labelling, SrtA versus SrtB (SrtB): selectively disclosed wild-type SrtA, but not SrtB
